Results from patent US20160272969A1, “COMPOSITIONS AND METHODS FOR MODULATING AUTOPHAGIC CELL DEATH” (priority 2013, published 2016).
Where a SMILES comes first, the peptide text is derived from it. [ ]: non-standard residue; d: D form. The star is where a group is joined. Sta = CC(C)C[C@H](N)[C@@H](O)CC(=O)O; Isovaleryl = CC(C)CC(=O)*

How the values were obtained:
MCF-7 cells [1] = assay: Labeling of autophagic vacuoles with monodansylcadaverine (MDC), MCF-7 cells; format: cell-based, human; settings: for MDC uptake in cells treated with TPCK: MCF-7 cells treated with TPCK, 3 MA 5 mM or bafilomycin A1 50 nM, 24 hours
Protocol: (§1) The human breast cancer MCF-7 cell line was cultured in DMEM (Invitrogen, 41965) supplemented with 10% FBS (Beit Haemek, 04-121-1A), 300 mg/l L-glutamine (Beit Haemek, 03-020-1B), 100 U/ml penicillin, 100 μg/ml streptomycin and 12.5 U/ml nystatin (Beit Haemek, 03-032-1B) and 100 U/ml recombinant human insulin (Beit Haemek, 01-818-1H), at 37° C. in 5% CO2.
(§2) Cells were plated in 24-wells plate or 96-well plates at a concentration of 5·10^4 cells/ml. A day later the cells were treated with different concentrations of tamoxifen or TPCK as indicated below.
(§3) Following treatment, the cells were incubated with 0.05 mM MDC in PBS at 37° C. for 10 minutes (Biederbick et al., Eur J Cell Biol. 1995 January; 66(1):3-14). Intracellular MDC was measured by fluorescence photometry (excitation wavelength 380 nm, emission filter 525 nm) in a TECAN SPECTRA Fluor Plus microplate reader. The MDC fluorescence intensity was correlated to cell density as measured by XTT reduction assay performed in parallel treated samples. The results are expressed as fluorescence/cell.
(§4) For visualization of MDC-labeled vacuoles, cells were grown on coverslips, incubated with 0.05 mM MDC at 37° C. for 10 minutes. After incubation, cells were washed four times with PBS and immediately analyzed by fluorescence microscopy.

MCF-7 cells [2] = assay: Cell death by trypan blue staining, MCF-7 cells; format: cell-based, human; settings: for TPCK or tamoxifen-induced cell death on addition of autophagy inhibitor: 50 nM bafilomycin A1, 5 mM 3-Methyladenine or combination of 10 m/ml pepstatin with 10 m/ml E64-d
Protocol: as §1, §2

MCF-7 cells [3] = assay: Western blot of LC3-II levels, MCF-7 cells; format: cell-based, human; settings: for TPCK-induced accumulation of LC3-II: co-incubation with E64d and pepstatin A together
HT-29 cells [4] = assay: Western blot of LC3-II levels, HT-29 cells; format: cell-based, human; settings: for TPCK-induced accumulation of LC3-II: co-incubation with E64d and pepstatin A together
[5] = biological target: alpha-1-antitrypsin (AAT) (Homo sapiens, UniProt P01009); assay: Interaction assay between AAT and TRFCK (SDS-PAGE fluorescence, Western blot); format: binding
Protocol: 2 μg/μl AAT was incubated in vitro with 50 μM TRFCK in 37° c. for 30 min. After the incubation time the sample was subjected to 10% SDS-PAGE before being transferred to polyvinylidene difluoride (PVDF) membranes. At the end of the transfer the membrane was analyzed under UV lamp to track TRFCK fluorescence. The sample was then exposed to primary antibody anti-AAT. The secondary antibody was an HRP-conjugated anti-goat IgG (Jackson ImmunoResearch, USA) The membrane was then visualized using an ECL+plus Western Blotting Detection System.
AAT was incubated in vitro with 50 μM TRFCK (a fluorescence analog of TPCK, N-tosyl-L-phenylalanine chloromethyl ketone) in 37° C. for 30 min. Following incubation, the sample was applied to SDS-PAGE electrophoresis and transferred to PVDF membrane. Thereafter, the membrane was analyzed under UV lamp to track TRFCK fluorescence (FIG. 2, track 1). In addition, Western blot analysis was performed using the same membrane with an antibody against AAT (FIG. 2, track 2).

MCF-7 cells [6] = assay: Western blot of intracellular AAT level, MCF-7 cells; format: cell-based, human; settings: MCF-7 cell lysates; TPCK 50 μM, tamoxifen 10 μM; 1-3 hr treatment
Protocol: (§5) Normal or treated 10^7 cells were collected, washed twice with ice-cold PBS and resuspended in 0.5 ml ice-cold lysing buffer (50 mM Tris-HCl pH 7.5, 0.1% NP-40, 1 mM DTT, 0.25M sucrose, 2 mM MgCl2). The cells were broken by politron (4 cycles of 7 sec) and the cell debris pelleted by centrifugation in an ultracentrifuge at 120,000×g for 30 min, at 4° C. The supernatant was used immediately or stored at −70° C. Protein content of each sample was determined with BioRad reagent according to Bradford's method using bovine serum albumin (BSA) as standard. Equal amounts of protein samples (40 μg/lane) were subjected to 10% SDS-PAGE before being transferred to polyvinylidene difluoride (PVDF) membranes. The samples were then exposed to the following primary antibodies: goat anti-AAT and goat anti-actin (Santa Cruz Biotechnology, Santa Cruz, Calif.) polyclonal antibody. The secondary antibody was an HRP-conjugated anti-goat IgG (Jackson ImmunoResearch, USA). The membranes were blocked with 5% skin milk/Tris-buffered saline containing 0.1% Tween-20 (TBST) at room temperature for 1 h, after which the samples were incubated overnight at 4° C. with each of the above primary antibodies. The membranes were then washed three times with TBST, followed by 1 h incubation at room temperature with the secondary antibody. […]

HT-29 cells [7] = assay: Western blot of intracellular AAT level, HT-29 cells; format: cell-based, human; settings: HT-29 cell lysates; TPCK 50 μM, tamoxifen 10 μM; 1-3 hr treatment
Protocol: as §5

trypsin = assay: Trypsin activity assay (BAEE cleavage); format: biochemical; settings: substrate BAEE, absorbance at 253 nm
Protocol: (§6) Trypsin activity was determined according to Bergmeyer et. al. (Bergmeyer, H. U., Gawehn, K. and Grassl, M. (1974) in Methods of Enzymatic Analysis (Bergmeyer, H. U. ed.) Volume 1, 2nd ed., 516-517, Academic Press, New York, N.Y.). All assays were set up at a total volume of 1 ml by adding 65 μl trypsin at final amount of 1.625 μg, 0.23 mM Na-benzoyl-L-arginine ethyl ester (BAEE) as substrate in 63 mM sodium phosphate, in the presence or absence of 100 μM or 125 μM AAT with or without different concentration of TPCK. Trypsin activity was measured by the cleavage of the substrate BAEE by measuring absorbance at 253 nm.

HT-29 cells [8] = assay: Labeling of autophagic vacuoles with monodansylcadaverine (MDC), HT-29 cells; format: cell-based, human; settings: HT-29 cells treated with TPCK for 24 hours
Protocol: HT-29 colorectal adenocarcinoma cells were cultured in RPMI 1640 (Invitrogene, 21875) supplemented with 10% FBS, 300 mg/l L-glutamine, 100 U/ml penicillin, 100 μg/ml streptomycin and 12.5 U/ml nystatin at 37° C. in 5% CO2.
as §2, §3, §4

[9] = system: GFP-LC3 transfected MCF-7 cells; assay: GFP-LC3 imaging of transfected MCF-7 cells; format: cell-based, human; settings: TPCK 50 μM, 24 hours
AAT = AAT (Homo sapiens, UniProt P01009); assay: AAT inhibition of trypsin activity (BAEE cleavage); format: biochemical; settings: TPCK added to AAT and trypsin; P<0.001 compared with control
Protocol: as §6

[10] = system: alpha-1-antitrypsin (AAT)

Chain of AAT (P01009 25-418): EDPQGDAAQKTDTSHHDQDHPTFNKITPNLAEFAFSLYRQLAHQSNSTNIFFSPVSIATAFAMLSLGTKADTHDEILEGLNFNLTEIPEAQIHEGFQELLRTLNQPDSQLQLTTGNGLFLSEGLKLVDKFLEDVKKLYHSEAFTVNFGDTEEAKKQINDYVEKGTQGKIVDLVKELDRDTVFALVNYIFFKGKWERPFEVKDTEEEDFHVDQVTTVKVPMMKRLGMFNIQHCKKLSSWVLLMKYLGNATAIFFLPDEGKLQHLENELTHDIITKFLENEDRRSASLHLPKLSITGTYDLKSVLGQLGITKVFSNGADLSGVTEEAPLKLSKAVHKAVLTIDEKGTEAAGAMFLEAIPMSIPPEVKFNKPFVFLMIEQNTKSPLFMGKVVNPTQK
Chain of alpha-1-antitrypsin (AAT) (Homo sapiens, UniProt P01009) (P01009 25-418): as above

Cn1cnc(N)c2ncnc1-2 [3-Methyladenine]
MDC uptake in cells treated with TPCK (MCF-7 cells [1]): suppressed MDC uptake | TPCK or tamoxifen-induced cell death on addition of autophagy inhibitor (MCF-7 cells [2]): reduced TPCK or tamoxifen-induced cell death

CCOC(=O)[C@H]1O[C@@H]1C(=O)N[C@@H](CC(C)C)C(=O)NCCC(C)C [E64d]
TPCK-induced accumulation of LC3-II (MCF-7 cells [3]): enhanced TPCK-induced accumulation of LC3-II | TPCK-induced accumulation of LC3-II (HT-29 cells [4]): enhanced TPCK-induced accumulation of LC3-II | TPCK or tamoxifen-induced cell death on addition of autophagy inhibitor (MCF-7 cells [2]): reduced TPCK or tamoxifen-induced cell death

CO/C1=C\C(C)=C\[C@@H](C)[C@@H](O)[C@@H](C)C/C(C)=C/C=C/[C@H](OC)[C@@H]([C@@H](C)[C@@H](O)[C@H](C)[C@@]2(O)C[C@@H](O)[C@H](C)[C@@H](C(C)C)O2)OC1=O [bafilomycin A1]
MDC uptake in cells treated with TPCK (MCF-7 cells [1]): suppressed MDC uptake | TPCK or tamoxifen-induced cell death on addition of autophagy inhibitor (MCF-7 cells [2]): reduced TPCK or tamoxifen-induced cell death

CC(C)CC(=O)N[C@H](C(=O)N[C@H](C(=O)N[C@@H](CC(C)C)[C@@H](O)CC(=O)N[C@@H](C)C(=O)N[C@@H](CC(C)C)[C@@H](O)CC(=O)O)C(C)C)C(C)C [pepstatin A] (Isovaleryl-VV[Sta]A[Sta]-OH)
TPCK-induced accumulation of LC3-II (MCF-7 cells [3]): enhanced TPCK-induced accumulation of LC3-II | TPCK-induced accumulation of LC3-II (HT-29 cells [4]): enhanced TPCK-induced accumulation of LC3-II | TPCK or tamoxifen-induced cell death on addition of autophagy inhibitor (MCF-7 cells [2]): reduced TPCK or tamoxifen-induced cell death

CC/C(=C(\c1ccccc1)c1ccc(OCCN(C)C)cc1)c1ccccc1 [tamoxifen]
competition with TRFCK on binding to AAT [5]: not able to compete with TRFCK on binding to AAT | cell death by trypan blue staining (MCF-7 cells [2]): induced cell death | AAT level as compared to actin (MCF-7 cells [6]): AAT level decreased | AAT level as compared to actin (HT-29 cells [7]): AAT level decreased

AAT: plasma-derived protein of the serine proteinase inhibitor family; recombinant AAT added to cells
autophagy induced by TPCK and tamoxifen, assessed by MDC staining (MCF-7 cells [1]; MCF-7 cells, AAT added prior to induction by TPCK (50 μM, 24 h) or tamoxifen (5 μM, 72 h)): reduction in autophagy | cell death induced by TPCK and tamoxifen, determined by trypan blue staining (MCF-7 cells [2]; AAT added prior to induction by TPCK (50 μM, 24 h) or tamoxifen (5 μM, 72 h)): reduction | trypsin activity (trypsin): inhibits trypsin activity

N-tosyl-L-phenylalanine chloromethyl ketone [TPCK]
MDC fluorescence intensity, number and size of MDC-labeled vesicles (MCF-7 cells [1]; MCF-7 cells treated with TPCK for 24 hours): dose dependent increase in fluorescence intensity | MDC fluorescence intensity, number and size of MDC-labeled vesicles (HT-29 cells [8]): dose dependent increase in fluorescence intensity | GFP-LC3 label (number of autophagosomes) [9]: accumulation of this label | LC3-II by western blot (MCF-7 cells [3]; TPCK 50 μM, different times): appearance of LC3-II | LC3-II by western blot (HT-29 cells [4]; TPCK 50 μM, different times): appearance of LC3-II | cell death by trypan blue staining (MCF-7 cells [2]): induced cell death | trypsin activity (trypsin): did not inhibit the trypsin activity | AAT inhibition of trypsin activity (AAT): the inhibition by AAT was abolished | AAT level as compared to actin (MCF-7 cells [6]): AAT level decreased | AAT level as compared to actin (HT-29 cells [7]): AAT level decreased

trypsin
trypsin activity (cleavage of the substrate BAEE, absorbance at 253 nm) [10]: AAT inhibits trypsin activity
